This note sets out measurements from ChEMBL document CHEMBL1134234, “NO-independent stimulators of soluble guanylate cyclase” (Bioorg Med Chem Lett, 2001).

The species entered for assay [1] is Oryctolagus cuniculus. As to the kind of experiment: (§1) Ability to inhibit maximum constriction of phenylephrine-treated precontracted (3x10 -8 g/mL) rabbit aortic rings. It is filed as functional. Conditions: Aorta.
The species entered for assay [2] is Oryctolagus cuniculus. The description is as §1. The class given is functional, Aorta.

Structures are written as SMILES.

As for `N#Cc1cccc(Cn2nc(-c3ccc(CO)o3)c3ccccc32)c1`, the IC50 in the assay listed under Oryctolagus cuniculus [1] was 26 µM.
On the same count and under the same terms, under `Nc1nc(-c2nn(Cc3ccccc3F)c3ncccc23)ncc1C1CCCC1` stands 0.904 µM.
Still for that read-out and setting: to `OCc1ccc(-c2nn(Cc3cncnc3)c3ccccc23)o1` belongs 3.2 µM; to `Cc1oc(-c2nn(Cc3ccccc3F)c3ncccc23)nc1CO`, 1.5 µM.
In turn, `OCc1ccc(-c2nn(Cc3cccnc3)c3ccccc23)o1` had an IC50 in the assay filed under Oryctolagus cuniculus [1] of 9.6 µM.
Same read-out and setting: under `OCc1ccc(-c2nn(Cc3ccccn3)c3ccccc23)o1` stands 16 µM; under `Fc1ccccc1Cn1nc(-c2ccccn2)c2cccnc21`, 4.8 µM; under `CCCCCc1cnc(-c2nn(Cc3ccccc3F)c3ncccc23)nc1N`, 200 µM.
In the assay listed under Oryctolagus cuniculus [1], `N#Cc1ccccc1Cn1nc(-c2ccc(CO)o2)c2ccccc21` yielded an IC50 of 8.7 µM.
For the molecule `CC(C)(C)c1cnc(-c2nn(Cc3ccccc3F)c3ncccc23)nc1N`, the IC50 in the assay listed under Oryctolagus cuniculus [1] worked out at 0.709 µM.
Still for that read-out and setting: to `OCc1ccnc(-c2nn(Cc3ccccc3F)c3ncccc23)n1` belongs 1.3 µM; to `N#CCCc1cnc(-c2nn(Cc3ccccc3F)c3ncccc23)nc1N`, 412 µM.
Molecule `CC(C)c1cnc(-c2nn(Cc3ccccc3F)c3ncccc23)nc1N` registered an IC50 in the assay listed under Oryctolagus cuniculus [1] of 207 µM.
The same measure, in the same setting: under `OCc1ccc(-c2nn(Cc3ccccc3F)c3ccccc23)o1` stands 4.9 µM; under `CCOP(=O)(OCC)c1cnc(-c2nn(Cc3ccccc3F)c3ncccc23)nc1N`, 414 µM.
Consider `Cc1coc(-c2nn(Cc3ccccc3F)c3ncccc23)n1`, for which half-maximal inhibition in the assay listed under Oryctolagus cuniculus [1] (IC50) was put at 1.2 µM.
The same measure, in the same setting: under `CCc1c[nH]c(-c2nn(Cc3ccccc3F)c3ncccc23)n1` stands 0.6 µM.
Molecule `Cc1cnc(-c2nn(Cc3ccccc3F)c3ncccc23)nc1N` showed an IC50 in the assay listed under Oryctolagus cuniculus [1] of 675 µM.
The same measure, in the same setting: under `NCc1cnc(-c2nn(Cc3ccccc3F)c3ncccc23)nc1N` stands 1.4 µM; under `OCc1ccc(-c2nn(Cc3ccc(Cl)s3)c3ccccc23)o1`, 7.2 µM; under `CSc1cnc(-c2nn(Cc3ccccc3F)c3ncccc23)nc1N`, 243 µM.
The same measure, in the same setting: under `Fc1ccccc1Cn1nc(-c2nn[nH]n2)c2cccnc21` stands 8.6 µM; under `N#Cc1cnc(-c2nn(Cc3ccccc3F)c3ncccc23)nc1N`, 391 µM.
Still for that read-out and setting: to `COc1cnc(-c2nn(Cc3ccccc3F)c3ncccc23)nc1N` belongs 343 µM.
In the assay filed under Oryctolagus cuniculus [2], `OCc1ccc(-c2nn(Cc3ccccc3F)c3cccnc23)o1` came in with an Inhibition of 27%. The half-inhibitory concentration (IC50) in the assay filed under Oryctolagus cuniculus [1] was found to be 20.4 µM.
As to `Nc1nc(-c2nn(Cc3ccccc3F)c3ncccc23)ncc1C1CCC1`, the IC50 in the assay listed under Oryctolagus cuniculus [1] was determined as 633 µM.
Regarding `Fc1ccccc1Cn1nc(C2=NCCN2)c2cccnc21`, it took 3.2 µM to reach half-maximal inhibition in the assay listed under Oryctolagus cuniculus [1] (IC50).
Still for that read-out and setting: to `CCc1cnc(-c2nn(Cc3ccccc3F)c3ncccc23)nc1N` belongs 272 µM.
The molecule `CC(C)S(=O)(=O)c1cnc(-c2nn(Cc3ccccc3F)c3ncccc23)nc1N` registered an IC50 in the assay filed under Oryctolagus cuniculus [1] of 517 µM.
Still for that read-out and setting: to `OCc1ccc(-c2nn(Cc3ccccc3)c3ccccc23)o1` belongs 10 µM.
Still for that read-out and setting: to `OCc1ccc(-c2nn(Cc3ccccc3F)c3ncccc23)o1` belongs 1.7 µM.
The same measure, in the same setting: to `Nc1nc(-c2nn(Cc3ccccc3F)c3ncccc23)ncc1N1CCSCC1` belongs 650 µM; to `CCCCc1cnc(-c2nn(Cc3ccccc3F)c3ncccc23)nc1N`, 218 µM.
With `CCCS(=O)(=O)c1cnc(-c2nn(Cc3ccccc3F)c3ncccc23)nc1N`, the IC50 in the assay listed under Oryctolagus cuniculus [1] came to 378 µM.
Still for that read-out and setting: to `OCc1ccc(-c2nn(Cc3ccccc3F)c3cnccc23)o1` belongs 6.93 µM; to `Nc1nc(-c2nn(Cc3ccccc3F)c3ncccc23)ncc1C1CCCCC1`, 561 µM; to `Fc1ccccc1Cn1nc(-c2cc[nH]n2)c2cccnc21`, 1.8 µM.
In turn, `CC(C#N)CCCCCc1cnc(-c2nn(Cc3ccccc3F)c3ncccc23)nc1N` (centres undefined) showed an IC50 in the assay listed under Oryctolagus cuniculus [1] of 1290 µM.
On the same count and under the same terms, under `Nc1nc(-c2nn(Cc3ccccc3F)c3ncccc23)ncc1N1CCOCC1` stands 306 µM.
Same read-out and setting: to `CS(=O)(=O)c1cnc(-c2nn(Cc3ccccc3F)c3ncccc23)nc1N` belongs 261 µM.
Still for that read-out and setting: to `OCc1ccc(-c2nn(Cc3ccc(F)cc3)c3ccccc23)o1` belongs 19 µM.
With `N#CCCCCCc1cnc(-c2nn(Cc3ccccc3F)c3ncccc23)nc1N`, half-maximal inhibition in the assay filed under Oryctolagus cuniculus [1] (IC50) required 588 µM.
The same measure, in the same setting: to `Nc1nc(-c2nn(Cc3ccccc3F)c3ncccc23)ncc1F` belongs 478 µM; to `OCc1ccc(-c2nn(Cc3ccccc3F)c3ccncc23)o1`, 9.8 µM; to `CCCc1cnc(-c2nn(Cc3ccccc3F)c3ncccc23)nc1N`, 252 µM.
In the assay filed under Oryctolagus cuniculus [1], `Nc1nc(-c2nn(Cc3ccccc3F)c3ncccc23)ncc1CC(F)(F)F` registered an IC50 of 508 µM.
Still for that read-out and setting: under `Cc1nc(-c2nn(Cc3ccccc3F)c3ncccc23)oc1CO` stands 0.9 µM.
Still for that read-out and setting: under `NS(=O)(=O)c1ccc(-c2nn(Cc3ccccc3F)c3ncccc23)o1` stands 8 µM; under `OCc1ccc(-c2nn(Cc3ccccc3F)c3ncncc23)o1`, 9.4 µM.
Still for that read-out and setting: to `CCCCCCc1cnc(-c2nn(Cc3ccccc3F)c3ncccc23)nc1N` belongs 1.04 µM; to `Nc1nc(-c2nn(Cc3ccccc3F)c3ncccc23)ncc1C1=CCCC1`, 0.836 µM.
`Nc1nc(-c2nn(Cc3ccccc3F)c3ncccc23)ncc1C1CC1` returned an IC50 in the assay listed under Oryctolagus cuniculus [1] of 304 µM.
Still for that read-out and setting: to `OCc1ccc(-c2nn(Cc3cccc(F)c3)c3ccccc23)o1` belongs 10 µM.
In the assay filed under Oryctolagus cuniculus [1], `Nc1nc(-c2nn(Cc3ccccc3F)c3ncccc23)nc(N)c1C1CC1` returned an IC50 of 233 µM.
In the case of `Fc1ccccc1Cn1nc(-c2ccco2)c2cccnc21`, the IC50 in the assay listed under Oryctolagus cuniculus [1] is 9.3 µM.
As to `OCc1ccc(-c2nn(Cc3c(F)cccc3F)c3ccccc23)o1`, the IC50 in the assay filed under Oryctolagus cuniculus [1] came out at 15 µM.
`Fc1ccccc1Cn1nc(-c2ncccn2)c2cccnc21`: in the assay filed under Oryctolagus cuniculus [1], the IC50 came to 1.25 µM.
`Cc1cc(N)nc(-c2nn(Cc3ccccc3F)c3ncccc23)n1`: the IC50 in the assay filed under Oryctolagus cuniculus [1] came to 536 µM.

The IC50 is the concentration that gives 50% inhibition. The low end stands for greater potency in that assay, the high end for weaker potency in that assay. In general, Inhibition refers to the share of the control response that was lost under treatment.
